Where two headings read alike, the source gives them in different places.
Key:
[1] = biological target: T1, prostaglandin H synthase (cyclooxygenase) (Ovis aries, UniProt P05979); assay: In vitro inhibition of cyclooxygenase (polarographic oxygen consumption, conversion of arachidonic acid to prostaglandin H2); format: biochemical, sheep; settings: for IC50: sheep vesicular gland microsomal enzyme, pH 7.4, 30° C.; for less effective inhibitors of cyclooxygenase activity in vitro: versus free carboxylic acid analogues
T1 construct: sheep vesicular gland microsomal powder; from tissue; host or cells: sheep vesicular gland (lipid-depleted microsomal powder, solubilized)
T1 sequence (P05979 25-600): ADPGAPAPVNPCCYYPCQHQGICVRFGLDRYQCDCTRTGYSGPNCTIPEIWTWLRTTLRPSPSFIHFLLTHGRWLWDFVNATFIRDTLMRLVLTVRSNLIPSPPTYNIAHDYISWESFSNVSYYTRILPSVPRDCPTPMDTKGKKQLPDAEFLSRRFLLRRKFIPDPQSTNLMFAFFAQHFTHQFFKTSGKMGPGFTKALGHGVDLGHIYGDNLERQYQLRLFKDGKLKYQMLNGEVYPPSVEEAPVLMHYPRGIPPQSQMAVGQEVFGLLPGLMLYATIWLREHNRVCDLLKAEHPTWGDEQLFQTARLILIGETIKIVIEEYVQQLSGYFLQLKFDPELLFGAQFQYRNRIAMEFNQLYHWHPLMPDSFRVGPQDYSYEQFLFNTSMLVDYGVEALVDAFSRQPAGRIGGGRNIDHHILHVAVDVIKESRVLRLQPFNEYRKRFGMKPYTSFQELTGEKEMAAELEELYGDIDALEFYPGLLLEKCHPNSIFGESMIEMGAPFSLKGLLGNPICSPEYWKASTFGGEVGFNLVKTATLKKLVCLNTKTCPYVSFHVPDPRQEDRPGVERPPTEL
Protocol: In vitro anti-inflammatory activity of 2-amino-3-benzoylbenzeneacetic acid analogues was tested by polarographically monitoring the inhibition in the rate of oxygen consumption (Cook H. W., Ford G., and Lands WEM, Anal. Biochem. 96:341, 1979) in the conversion of arachidonic acid to prostaglandin H2 by prostaglandin H synthase (cyclooxygenase). Cyclooxygenase enzyme was prepared by solubilizing 20 mg of lipid-depletedsheep vesicular gland microsomal powder (Graff G., Stephenson J. H., et al., J. Biol. Chem. 253:7662, 1978) in 1.0 mL of buffer containing 50 mM phosphate, 5 mM diethyldithiocarbamic acid, and 2 μM hematin (pH 7.4). Incubations were carried out at 30° C. with a YSI-oxygen monitor (Model 53) in 50 mM phosphate/0.5 mM phenol buffer (pH 7.4) as described elsewhere (Graff G., and Anderson L. A., Prostaglandins 38:473, 1989).

[2] = test system: trauma-induced breakdown of the blood-aqueous-barrier; assay: In vivo trauma-induced (paracentesis) breakdown of the blood-aqueous-barrier: aqueous humor PGE2 and protein; parameters: species or system New Zealand Albino (NZA) rabbits; settings: for inhibition in vivo at 0.1 %: Oryctolagus cuniculus, 0.5 h, read-out: In Vivo Paracentesis Protein Extravasation Inhibition
Protocol: In vivo anti-inflammatory activity of 2-amino-3-benzoylbenzeneacetic acid analogues was evaluated in the model of trauma-induced breakdown of the blood-aqueous-barrier in New Zealand Albino (NZA) rabbits. Animals were anesthetized prior to bilateral administration of a single topical 50 μL dose of a 0.1% solution/suspension of formulated test or reference compound. After 45 minutes of treatment ocular trauma was induced by paracentesis.

[3] = test system: iris/ciliary body prostaglandin synthesis; assay: Ex vivo inhibition of iris/ciliary body prostaglandin synthesis after topical dosing; format: in vivo, New Zealand Albino (NZA) rabbits; settings: for inhibition in vivo at 0.1 %: Oryctolagus cuniculus, 1 h, single topical dose of 0.1% drug solution/suspension 60 minutes prior to iris/ciliary body isolation, read-out: Ex Vivo Iris/Ciliary Body Total Prostaglandin Synthesis Inhibition
Protocol: Ex vivo anti-inflammatory activity of 2-amino-3-benzoylbenzeneacetic acid analogues was evaluated in naive New Zealand Albino (NZA) rabbits. In this test animals were dosed bilaterally with a single 50 μL aliquot of a 0.1% solution/suspension of vehicle, formulated test or reference compound. After 60 minutes of treatment, animals were euthanized, iris/ciliary body (ICB) quickly excised and placed into ice-cold PBS buffer (pH 7.4). The tissue was then weighed, homogenized in ice-cold 50 mM phosphate/0.5 mM phenol buffer (pH 7.4) and incubated for 10 minutes at 37° C. with 10 μM of [1-^14 C]-20:4.

[4] = single topical dose of 0.1% drug solution/suspension 45 minutes prior to paracentesis, plasma protein influx into aqueous humor
[5] = single topical dose of 0.1% drug solution/suspension 45 minutes prior to paracentesis

Row | IC50 [1] [µM] | less effective inhibitors of cyclooxygenase activity in vitro [1] | SMILES | in vitro cyclooxygenase inhibition, result in words [1] | in vivo anti-inflammatory activity, result in words [2] | inhibition in vivo at 0.1 % [2, 4] [%] | In Vivo Aqueous Humor PGE2 Accumulation Inhibition [2, 5] [%] | inhibition in vivo at 0.1 % [3] [%] | spectrum of inhibition of iris/ciliary body prostaglandins ([3]; individual prostaglandins) | ex vivo iris/ciliary body prostaglandin synthesis inhibition, result in words ([3]; rabbit, in vivo) | inhibition in vivo at 0.1 % [2] [%] | in vivo anti-inflammatory activity, result in words ([2]; plasma protein influx and aqueous humor PGE2 accumulation)
1 | > 100 |  | CN(C)C(=O)Cc1cccc(C(=O)c2ccc(Br)cc2)c1N [4'-Br N(CH3)2, reference compound] | inactive | inactive | 2 | -27 |  |  |  |  | 
2 | 0.25 |  | Nc1c(CC(=O)O)cccc1C(=O)c1ccccc1 [Amfenac, 2-amino-3-benzoylbenzeneacetic acid, reference compound] |  |  | 41 |  |  |  |  |  | 
3 | 0.029 |  | Nc1c(CC(=O)O)cccc1C(=O)c1ccc(Br)cc1 [Bromfenac, reference compound] |  |  | 62 | 98 | 44 |  |  |  | 
4 | > 100 | ≥ 3 orders of magnitude | NC(=O)Cc1cccc(C(=O)c2ccc(Cl)cc2)c1N [Compound 9, 2-Amino-3-(4-chlorobenzoyl)-phenylacetamide] |  |  | 65 | 98 | 29 |  |  |  | 
5 | 19 | ≥ 3 orders of magnitude | NC(=O)Cc1cccc(C(=O)c2ccc(Br)cc2)c1N [Compound 15, 2-Amino-3-(4-bromobenzoyl)-phenylacetamide] |  |  | 64 | 97 | 23 |  |  |  | 

More lines, now with the values behind:

Row | SMILES | IC50 [1] [µM] | less effective inhibitors of cyclooxygenase activity in vitro [1] | in vitro cyclooxygenase inhibition, result in words [1] | in vivo anti-inflammatory activity, result in words [2] | inhibition in vivo at 0.1 % [2, 4] [%] | In Vivo Aqueous Humor PGE2 Accumulation Inhibition [2, 5] [%] | inhibition in vivo at 0.1 % [3] [%] | spectrum of inhibition of iris/ciliary body prostaglandins ([3]; individual prostaglandins) | ex vivo iris/ciliary body prostaglandin synthesis inhibition, result in words ([3]; rabbit, in vivo) | inhibition in vivo at 0.1 % [2] [%] | in vivo anti-inflammatory activity, result in words ([2]; plasma protein influx and aqueous humor PGE2 accumulation)
6 | Nc1c(CC(=O)O)cccc1C(=O)c1ccc(Cl)cc1 [4'-Cl OH, 2-amino-3-(4-chloro-benzoyl)benzeneacetic acid, reference compound] | 0.07 |  |  |  | 72 | 99 |  |  |  |  | 
7 | Nc1c(CC(=O)O)cccc1C(=O)c1ccc(F)cc1 [4'-F OH, reference compound] | 0.171 |  |  |  | 42 |  |  |  |  |  | 
8 | NC(=O)Cc1cccc(C(=O)c2ccc(F)cc2)c1N [Compound 7, 2-Amino-3-(4-fluorobenzoyl)-phenylacetamide] | 133 | ≥ 3 orders of magnitude |  |  | 72 | 98 | 27 |  |  |  | 
9 | NC(=O)Cc1cccc(C(=O)c2ccccc2)c1N [Compound 8, 2-Amino-3-benzoyl-phenylacetamide] | 64 | ≥ 3 orders of magnitude |  |  | 61 | 98 | 81 | inhibited to a similar extent | most effective inhibitor |  | 
10 | CCOC(=O)Cc1cccc(C(=O)c2ccc(Br)cc2)c1N [Compound 14, Ethyl-2-Amino-3-(4-bromobenzoyl)benzene acetate] | > 25 |  |  |  | 60 |  | 33 |  |  |  | 
11 | CNC(=O)Cc1cccc(C(=O)c2ccc(Br)cc2)c1N [Compound 16, 2-Amino-3-(4-bromobenzoyl)-N-methyl phenylacetamide] | 16 | ≥ 3 orders of magnitude |  |  | 62 | 93 | 48 |  |  |  | 
12 | O=C(O)Cc1ccccc1Nc1c(Cl)cccc1Cl [Diclofenac, reference compound] |  |  | somewhat less effective |  |  | 97 | 50 |  |  | 54 | somewhat less effective
